Among the data in ChEMBL document CHEMBL4602613, “Early identification of promiscuous attributes of aldose reductase inhibitors using a DMSO-perturbation assay” (Bioorg Med Chem Lett, 2020) are IC50, inhibition and Ratio IC50 values, retold here.

The target in test [1] is T1, Aldo-keto reductase family 1 member B1 (Homo sapiens, UniProt P15121). As to the kind of experiment: Inhibition of human recombinant AKR1B1 assessed as D,L-glyceraldehyde reduction pretreated with 0.3M DMSO followed by compound addition by DMSO-perturbation assay.
For test [2], the target named is T1, Aldo-keto reductase family 1 member B1. As to the kind of experiment: Inhibition of human recombinant AKR1B1 assessed as D,L-glyceraldehyde reduction incubated in sodium phosphate buffer at pH 6.2 in presence of NADPH.
For test [3] the target is unchanged. In words: Inhibition of human recombinant AKR1B1 assessed as D,L-glyceraldehyde reduction pretreated with 0.7M DMSO followed by compound addition by DMSO-perturbation assay.
Test [4] has the same target. As to the kind of experiment: Inhibition of human recombinant AKR1B1 assessed as D,L-glyceraldehyde reduction at 100 uM incubated in sodium phosphate buffer at pH 6.2 in presence of NADPH relative to control.
For test [5] the target is unchanged. In words: Aggregation-based inhibition of human recombinant AKR1B1 assessed as D,L-glyceraldehyde reduction incubated in sodium phosphate buffer at pH 6.2 in presence of NADPH and 0.05% Triton X-100 by detergent-addition assay.
Test [6] has the same target. As to the kind of experiment: Ratio of IC50 for human recombinant AKR1B1 in presence of 0.7M DMSO to IC50 for human recombinant AKR1B1 in presence of 0.3M DMSO by DMSO-perturbation assay.
Test [7] has the same target. As to the kind of experiment: Aggregation-based inhibition of human recombinant AKR1B1 assessed as D,L-glyceraldehyde reduction at 300 uM incubated in sodium phosphate buffer at pH 6.2 in presence of NADPH and 0.05% Triton X-100 by detergent-addition assay.
The target in test [8] is T2, Aldo-keto reductase family 1 member B10 (Homo sapiens, UniProt O60218). In words: Inhibition of AKR1B10 (unknown origin) pretreated with 0.25M DMSO followed by compound treatment by DMSO-perturbation assay.
Test [9] addresses T2, Aldo-keto reductase family 1 member B10. As to the kind of experiment: Inhibition of AKR1B10 (unknown origin) pretreated with 0.42M DMSO followed by compound treatment by DMSO-perturbation assay.

The structures appear in SMILES notation. Some results are limits rather than exact numbers.

T2 sequence (O60218 whole entry): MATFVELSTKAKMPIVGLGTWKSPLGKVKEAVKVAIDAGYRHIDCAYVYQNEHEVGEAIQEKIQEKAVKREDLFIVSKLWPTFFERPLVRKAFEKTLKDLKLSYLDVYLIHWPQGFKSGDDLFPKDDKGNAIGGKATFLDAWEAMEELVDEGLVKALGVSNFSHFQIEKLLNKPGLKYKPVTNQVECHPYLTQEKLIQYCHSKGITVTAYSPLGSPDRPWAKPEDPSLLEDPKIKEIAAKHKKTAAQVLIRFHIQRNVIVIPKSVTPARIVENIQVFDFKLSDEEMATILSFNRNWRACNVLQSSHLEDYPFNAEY

For `O=C1NC(=O)C(c2ccccc2)(c2ccc(O)cc2)N1` (stereo not given), the concentration for half-maximal inhibition (IC50) (commonly the concentration that gives 50% inhibition) in test [1] was 40.6 µM; in test [2] (read-out: IC50), 40.6 µM; in test [3], 64.2 µM; in test [5], 47.9 µM. Besides, the inhibition (usually the share of the control response that was lost under treatment) in test [4] came to 71%.

In the case of `COc1ccc(C2(C)NC(=O)NC2=O)c(O)c1` (stereo not given), the IC50 in [2] (read-out: IC50) is 295 µM; in test [5] it was 433 µM. The inhibition in test [4] is 31%.

`O=C1NC(=O)C(c2ccccc2)N1` (stereo not given): the inhibition in test [4] is 34%.

Turning to `COc1ccc(C(C)=O)c(O)c1`, the inhibition in test [4] was 2%.

Consider `CCCCC[C@H](O)CC(=O)CCc1ccc(O)c(OC)c1` [GINGEROL], for which the half-maximal inhibitory concentration (IC50) result in test [2] was “Not Active”. In test [4], the inhibition amounted to 4%.

Consider `CCCC1NC(=O)NC1=O` (stereo not given), for which the inhibition in [4] was found to be 19%.

Take `CC(=O)CC[C@@H]1[C@H]2CC(=C(C)C)C(=O)C[C@@]12C`: the inhibition in [4] came out at 3%.

On to `Cn1cnc2c1c(=O)n(CCCCC1(C)NC(=O)NC1=O)c(=O)n2C` (stereo not given), for which the IC50 in test [1] turned out to be 65.6 µM; in [2] (read-out: IC50), 65.6 µM; in test [3] it was 178 µM; in test [5], 71.9 µM. Also, the inhibition in test [4] turned out to be 56%. Also, the Ratio IC50 in test [6] came to 2.7.

Regarding `CCCCCCCCC[C@H](O)CC(=O)CCc1ccc(O)c(OC)c1`, the IC50 in [2] (read-out: IC50) was determined as 126 µM. The results for the inhibition in [4] and in [7] were 45% and below 50%, respectively.

For the compound `CC1(CCc2ccccc2)NC(=O)NC1=O` (stereo not given), the IC50 in [2] (read-out: IC50) amounted to 160 µM; in test [5], 319 µM. Besides, the inhibition in [4] worked out at 39%.

Take `CC(C)=C1C[C@@H]2[C@@H](CCC3(C)NC(=O)NC3=O)[C@]2(C)CC1=O` (stereo not given in full): the values for the IC50 in [2] (read-out: IC50) and in [5] were 291 µM and 453 µM, respectively. For the same compound, the inhibition in test [4] was 30%.

In the case of `COc1ccc2c(c1)OC(=O)NC2(C)C(N)=O` (stereo not given), the inhibition in [4] came to 12%.

`CC(/C=C1\SC(=S)N(CC(=O)O)C1=O)=C\c1ccccc1`: the IC50 in [8] came to 0.0352 µM; in test [9], 0.0393 µM.

For `O=C1NC(=O)C2(CCCc3ccccc32)N1` (stereo not given), the figures for the IC50 in test [2] (read-out: IC50) and in test [5] were 80.1 µM and 114 µM, respectively. Further, the inhibition in test [4] was 56%.
